Test results as given in ChEMBL document CHEMBL1124186, “Synthesis and evaluation of tylosin-related macrolides modified at the aldehyde function: a new series of orally effective antibiotics” (1988).
≈ marks a conversion by molar mass, not a printed value.

Columns and labels:
Haemophilus influenzae = assay: In vitro antimicrobial activity against Haemophilus influenzae.; type: functional
Staphylococcus aureus = assay: In vitro antimicrobial activity against Staphylococcus aureus X1; type: functional
Streptococcus pyogenes [1] = assay: In vivo effective dose against experimental infections in rodent caused by Streptococcus pyogenes C203 when administered sc; type: functional
Streptococcus pneumoniae = assay: In vitro antimicrobial activity against Streptococcus pneumoniae; type: functional
[2] = tested on: Staphylococcus epidermidis; assay: In vitro antimicrobial activity against Staphylococcus epidermidis EPI1; type: functional
Enterococcus faecium = assay: In vitro antimicrobial activity against Streptococcus faecium X66; type: functional, streptococcus fae-cium
Streptococcus pyogenes [3] = assay: In vitro antimicrobial activity against Streptococcus pyogenes C203; type: functional
Streptococcus pyogenes [4] = assay: In vivo effective dose against experimental infections in rodent caused by Streptococcus pyogenes C203 when administered orally; type: functional; settings: po
Bacteroides fragilis [5] = assay: In vitro antimicrobial activity against anaerobic bacteria bacteroides fragilis 111; type: functional
Bacteroides fragilis [6] = assay: In vitro antimicrobial activity against anaerobic bacteria bacteroides fragilis 1877; type: functional
Bacteroides fragilis [7] = assay: In vitro antimicrobial activity against anaerobic bacteria bacteroides fragilis 1936B,; type: functional
Eikenella corrodens = assay: In vitro antimicrobial activity against anaerobic bacteria bacteroides corrodens 1874; type: functional
Phocaeicola vulgatus = assay: In vitro antimicrobial activity against anaerobic bacteria bacteroides vulgatus 1211; type: functional
[8] = tested on: Prevotella melaninogenica; assay: In vitro antimicrobial activity against anaerobic bacteria bacteroides melaninogenicus 1856,; type: functional
[9] = tested on: Bacteroides thetaiotaomicron; assay: In vitro antimicrobial activity against anaerobic bacteria bacteroides thetaiotaomicron 1438; type: functional
Clostridioides difficile = assay: In vitro antimicrobial activity against anaerobic bacteria Clostridium difficile 2994; type: functional
Clostridium perfringens = assay: In vitro antimicrobial activity against anaerobic bacteria clostridium perfringens 81,; type: functional
Clostridium septicum = assay: In vitro antimicrobial activity against anaerobic bacteria clostridium septicum 1128; type: functional
Chlamydia trachomatis = assay: In vitro antimicrobial activity against chlamydia trachomatis.; type: functional
Fusobacterium = assay: In vitro antimicrobial activity against anaerobic bacteria fusobacterium symbiosum 1470; type: functional
[10] = In vitro antimicrobial activity against anaerobic bacteria peptostreptococcus intermedius 1264; type: functional
[11] = tested on: Peptoniphilus asaccharolyticus; assay: In vitro antimicrobial activity against anaerobic bacteria peptococcus asaccharolyticus 1302; type: functional
Anaerococcus prevotii = assay: In vitro antimicrobial activity against anaerobic bacteria peptococcus prevoti 1281; type: functional
Cutibacterium acnes = assay: In vitro antimicrobial activity against anaerobic bacteria propionibacterium acnes 79; type: functional
[12] = tested on: Prevotella melaninogenica; assay: In vitro antimicrobial activity against anaerobic bacteria bacteroides melaninogenicus 2736; type: functional
[13] = tested on: Fusobacterium necrophorum; assay: In vitro antimicrobial activity against anaerobic bacteria usobacterium necrophorum 6054A; type: functional
Collinsella aerofaciens = assay: In vitro antimicrobial activity against anaerobic bacteria eubacterium aerofaciens 1235; type: functional
[14] = tested on: Peptostreptococcus anaerobius; assay: In vitro antimicrobial activity against anaerobic bacteria eubacterium peptostreptococcus anaerobius 1428,; type: functional

| Compound | MIC (Haemophilus influenzae) [µg/mL] | MIC (Staphylococcus aureus) [µg/mL] | ED50 (Streptococcus pyogenes [1]) [mg/kg] | MIC (Streptococcus pneumoniae) [µg/mL] | MIC [2] [µg/mL] | MIC (Enterococcus faecium) [µg/mL] | MIC (Streptococcus pyogenes [3]) [µg/mL] | ED50 (Streptococcus pyogenes [4]) [mg/kg] | also measured |
| --- | --- | --- | --- | --- | --- | --- | --- | --- | --- |
| CC[C@H]1OC(=O)C[C@@H](O)[C@H](C)[C@@H](O[C@@H]2O[C@H](C)[C@@H](O)[C@H](N(C)C)[C@H]2O)[C@@H](CCOS(=O)(=O)c2ccc(C)cc2)C[C@@H](C)C(=O)/C=C/C(C)=C/[C@@H]1CO[C@@H]1O[C@H](C)[C@@H](O)[C@@H](OC)[C@H]1OC | 32 (≈ 34.5 µM) | 0.5 (≈ 0.539 µM) | 3.1 | 1 (≈ 1.08 µM) | 0.5 (≈ 0.539 µM) | 8 (≈ 8.62 µM) | 1 (≈ 1.08 µM) | 5 |  |
| CC[C@H]1OC(=O)C[C@@H](O)[C@H](C)[C@@H](O[C@@H]2O[C@H](C)[C@@H](O)[C@H](N(C)C)[C@H]2O)[C@@H](CCOc2cc(Cl)cc(Cl)c2)C[C@@H](C)C(=O)/C=C/C(C)=C/[C@@H]1CO[C@@H]1O[C@H](C)[C@@H](O)[C@@H](OC)[C@H]1OC | 32 (≈ 34.8 µM) | 0.25 (≈ 0.272 µM) | > 10 | 1 (≈ 1.09 µM) | 0.25 (≈ 0.272 µM) | 4 (≈ 4.35 µM) | 0.12 (≈ 0.131 µM) | 31 |  |
| CC[C@H]1OC(=O)C[C@@H](O)[C@H](C)[C@@H](O[C@@H]2O[C@H](C)[C@@H](O[C@H]3C[C@@](C)(O)[C@@H](O)[C@H](C)O3)[C@H](N(C)C)[C@H]2O)[C@@H](CCOc2ccccc2)C[C@@H](C)C(=O)/C=C/C(C)=C/[C@@H]1CO[C@@H]1O[C@H](C)[C@@H](O)[C@@H](O)[C@H]1OC | > 128 | 2 (≈ 2.04 µM) | > 10 | 32 (≈ 32.6 µM) | 2 (≈ 2.04 µM) | > 128 | 4 (≈ 4.08 µM) | 91 |  |
| CC[C@H]1OC(=O)C[C@@H](O)[C@H](C)[C@@H](O[C@@H]2O[C@H](C)[C@@H](O)[C@H](N(C)C)[C@H]2O)[C@@H](CCO)C[C@@H](C)C(=O)/C=C/C(C)=C/[C@@H]1CO[C@@H]1O[C@H](C)[C@@H](O)[C@@H](OC)[C@H]1OC | 32 (≈ 41.3 µM) | 2 (≈ 2.58 µM) | 2.1 | 4 (≈ 5.17 µM) | 2 (≈ 2.58 µM) | 32 (≈ 41.3 µM) | 4 (≈ 5.17 µM) | > 100 |  |
| CC[C@H]1C[C@@H](C)C(=O)/C=C/C(C)=C/[C@H](CO)[C@@H](CC)OC(=O)C[C@@H](O)[C@H](C)[C@H]1O[C@@H]1O[C@H](C)[C@@H](O)[C@H](N(C)C)[C@H]1O | 32 (≈ 54.8 µM) | 4 (≈ 6.85 µM) | > 30 | 8 (≈ 13.7 µM) | 8 (≈ 13.7 µM) | 16 (≈ 27.4 µM) | 8 (≈ 13.7 µM) | 75 | MIC (Bacteroides fragilis [5]): > 8 µg/mL; MIC (Bacteroides fragilis [6]): > 8 µg/mL; MIC (Bacteroides fragilis [7]): > 8 µg/mL; MIC (Eikenella corrodens): > 8 µg/mL; MIC (Phocaeicola vulgatus): > 8 µg/mL; MIC [8]: > 8 µg/mL; MIC [9]: > 8 µg/mL; MIC (Clostridioides difficile): 2 µg/mL (≈ 3.43 µM); MIC (Clostridium perfringens): 2 µg/mL (≈ 3.43 µM); MIC (Clostridium septicum): 2 µg/mL (≈ 3.43 µM); MIC (Chlamydia trachomatis): 0.5 µg/mL (≈ 0.857 µM); MIC (Fusobacterium): > 8 µg/mL; MIC [10]: > 8 µg/mL; MIC [11]: > 8 µg/mL; MIC (Anaerococcus prevotii): > 8 µg/mL; MIC (Cutibacterium acnes): 2 µg/mL (≈ 3.43 µM); MIC [12]: > 8 µg/mL; MIC [13]: 8 µg/mL (≈ 13.7 µM); MIC (Collinsella aerofaciens): 2 µg/mL (≈ 3.43 µM); MIC [14]: > 8 µg/mL |
| CC[C@H]1OC(=O)C[C@@H](O)[C@H](C)[C@@H](O[C@@H]2O[C@H](C)[C@@H](O)[C@H](N(C)C)[C@H]2O)[C@@H](CCO)C[C@@H](C)C(=O)/C=C/C(C)=C/[C@@H]1CO[C@@H]1O[C@H](C)[C@@H](O)[C@@H](O)[C@H]1OC | 32 (≈ 42.1 µM) | 8 (≈ 10.5 µM) | 8.9 | 2 (≈ 2.63 µM) | 4 (≈ 5.26 µM) | 64 (≈ 84.2 µM) | 2 (≈ 2.63 µM) | > 100 |  |
